≈ marks a conversion by molar mass, not a printed value.
Columns and labels:
[1] = test system: G542X (CFTR, Cystic Fibrosis); experiment: Dual luciferase in vitro transcription/translation assay; format: biochemical, human
Text: (§1) DNA fragments derived from the subsequent genes, including the tested stop mutation or the corresponding wild-type codon, and four upstream and downstream flanking codons (except for p.R3X constructs, in which there are only two upstream PCDH15-flanking codons) were cloned into p2Luc plasmid between renilla and firefly luciferase genes as described previously. The formed plasmids, as well as the original p2Luc plasmid containing a TGA C nonsense mutation, were transcribed and translated in vitro and the stop codon suppression efficiency was calculated as described previously.
(§2) For the dual luciferase in vitro transcription/translation assay, DNA fragments derived from PCDH15, CFTR, Dystrophin and IDUA cDNAs, including the tested stop mutation or the corresponding wild-type codon, and four upstream and downstream flanking codons (except for p.R3X constructs, in which there are only two upstream PCDH15-flanking codons) were created by annealing the couples of complementary oligonucleotides presented above.
(§3) Fragments were inserted into the SalI and SacI restriction sites of the p2Luc plasmid between renilla and firefly luciferase genes. The afforded plasmids, as well as the original p2Luc plasmid containing a TGA C nonsense mutation, were transcribed and translated using the TNT Reticulocyte Lysate Quick Coupled Transcription/Translation System (Promega™). Each transcription/translation reaction (10 μl, total volume) contained 8 μl TNT T7 Quick Master Mix, 0.2 μl methionine (1 mM), 0.8 μl DNA template (2 μg/μl), 1 μl of either water (blank) or 1 μl solution of increasing concentrations of the tested aminoglycosides in water. Luciferase activity was determined following 90 minutes incubation at 30° C. using the Dual Luciferase Reporter Assay System (Promega™). The total luminescence produced by each one of the proteins was measured separately using the FLx800 multidetection plate reader (Bio-Tek) and the stop codon suppression efficiency was calculated as described previously. The results are averages of at least three independent experiments.

[2] = test system: Q70X (IDUA, Hurler Syndrome); experiment: as above; format: biochemical, human
Text: as §1, §2, §3

[3] = test system: R245X (PCDH15, Usher Syndrome); experiment: as above; format: biochemical, human
Text: as §1, §2, §3

[4] = test system: R3381X (Dystrophin, Duchenne Muscular Dystrophy); experiment: as above; format: biochemical, human
Text: as §1, §2, §3

[5] = test system: R3X (PCDH15, Usher Syndrome); experiment: as above; format: biochemical, human
Text: as §1, §2, §3

[6] = test system: W1282X (CFTR, Cystic Fibrosis); experiment: as above; format: biochemical, human
Text: as §1, §2, §3

[7] = test system: W402X (IDUA, Hurler Syndrome); experiment: as above; format: biochemical, human
Text: as §1, §2, §3

[8] = test system: Escherichia coli (R477-100); experiment: Antibacterial activity, MIC; format: cell-based; conditions: for MIC: Escherichia coli, read-out: minimal inhibitory concentration (MIC)
eukaryotic translation = experiment: Inhibition of eukaryotic translation; format: biochemical
prokaryotic translation = experiment: Inhibition of prokaryotic translation; format: biochemical; conditions: for preference for inhibiting translation in prokaryotes versus eukaryotes: from IC50 values
[9] = test system: Bacillus Subtilis ATCC 6633; experiment: Antibacterial activity, MIC by double-microdilution method; format: cell-based; conditions: ATCC 6633; for MIC: Bacillus subtilis, ATCC6633, read-out: MIC B. Subtilis
Protocol: (§4) In order to compare the observed aminoglycoside-induced stop codon read-through activity in mammalian cells to antibacterial activity thereof, Compounds 1-9 were further investigated as antibacterial agents against both Gram-negative (E. coli) and Gram-positive (Bacillus subtilis) bacteria, and the minimal inhibitory concentration (MIC) values were determined by using a microdilution assay with paromomycin and gentamicin as controls, and the results are presented in Table 18 hereinabove.
(§5) The bacterial strains used were Escherichia coli ATCC 25922, and Bacillus Subtilis ATCC 6633. […] All the experiments were performed in triplicates and analogous results were obtained in two to four different experiments.

[10] = test system: Escherichia coli ATCC 25922; experiment: as above; format: cell-based; conditions: ATCC 25922; for MIC: Escherichia coli, ATCC25922, read-out: MIC E. coli
Protocol: as §4, §5

Compound | Maximum in vitro suppression (%) G542X [1] [%] | Maximum in vitro suppression (%) Q70X [2] [%] | Maximum in vitro suppression (%) R245X [3] [%] | Maximum in vitro suppression (%) R3381X [4] [%] | Maximum in vitro suppression (%) R3X [5] [%] | Maximum in vitro suppression (%) W1282X [6] [%] | Maximum in vitro suppression (%) W402X [7] [%] | MIC [8] [µM] | IC50 (eukaryotic translation) [µM] | fold more efficient inhibition of eukaryotic translation than gentamicin and paromomycin (eukaryotic translation) | efficacy of inhibiting prokaryotic ribosome relative to gentamicin and paromomycin (prokaryotic translation) | preference for inhibiting translation in prokaryotes versus eukaryotes (prokaryotic translation) | MIC [9] [µg/mL] | MIC [10] [µg/mL] | MIC B. Subtilis [9] [µg/mL] | MIC E. coli [10] [µg/mL] | minimal inhibitory concentration (MIC) ([8]; Escherichia coli (R477-100)) [µM]
NCC[C@H](O)C(=O)N[C@@H]1CC(N)[C@@H](O[C@H]2OC(CO)[C@@H](O)C(O)C2N)C(O[C@@H]2O[C@H](CN)C(O)C2O)C1O (some centres unmarked) [Compound 37] | 5.1 ± 0.6 | 10.6 ± 1.1 | 4.9 ± 0.5 | 7.8 ± 0.8 | 29.2 ± 3.1 | 3.3 ± 0.4 | 21.9 ± 4.4 | 384 (≈ 213 µg/mL) | 24 | about 3 fold | significantly lower | about two-order of magnitude | – | – | – | – | –
NC[C@@H]1O[C@H](O[C@H]2[C@@H](O)[C@H](O[C@@H]3[C@@H](O)[C@H](N)C[C@H](N)[C@H]3O[C@H]3O[C@H](CO)[C@@H](O)[C@H](O)[C@H]3N)O[C@@H]2CO)[C@H](N)[C@@H](O)[C@@H]1O [paromomycin, reference compound] | 0.74 ± 0.08 | 2.2 ± 0.5 | 0.71 ± 0.32 | 2.4 ± 0.3 | 9.4 ± 0.5 | 1.2 ± 0.2 | 3.3 ± 0.1 | 22 (≈ 13.5 µg/mL) | 58 | – | – | about tree order of magnitude | 8 (≈ 13 µM) | 12 (≈ 19.5 µM) | – | – | –
gentamicin [reference compound] | 2.8 ± 0.7 | 1.5 ± 0.4 | 0.90 ± 0.28 | 3.5 ± 0.7 | 14.0 ± 1.0 | 1.4 ± 0.5 | 7.2 ± 0.5 | – | 60 | – | – | about tree order of magnitude | – | – | <0.5 | 4 | 6
NC[C@H]1O[C@@H](O[C@@H]2[C@@H](O)[C@H](N)C[C@H](N)[C@H]2O[C@H]2O[C@H](CO)[C@@H](O)[C@H](O)[C@H]2N)[C@H](O)[C@@H]1O [Compound 3] | 0.63 ± 0.29 | 2.0 ± 0.4 | 0.98 ± 0.30 | 1.8 ± 0.2 | 2.9 ± 0.9 | 1.6 ± 0.4 | 3.2 ± 0.4 | 790 (≈ 359 µg/mL) | 31 | about 2 fold | significantly lower | about two-order of magnitude | 48 (≈ 106 µM) | > 512 | – | – | –

Reference: patent US20190060340A1, “NOVEL AMINOGLYCOSIDES AND USES THEREOF IN THE TREATMENT OF GENETIC DISORDERS” (Technion Research & Development Foundation Limited, priority 2007, published 2019)
